Reference: patent US20150166505A1, “PYRIDINYL-SUBSTITUTED PYRAZOLYL CARBOXAMIDES” (GRÜNENTHAL GMBH, priority 2013, published 2015)
In brackets after ≈: the same amount, converted by molar mass. Where a name gives a salt, the structure may show the parent alone. Read-outs that look alike come from different tables or passages of the source.

Key:
[1] = Nephelometric Solubility Measurement; assay type: physicochemical; details: aqueous buffer, kinetic from dmso stock; phosphate buffered saline pH 7.4, 37° C., incubation 2 minutes
Method: Nephelometric Solubility Measurement
BMG Labtech Nephelostar (S/N 504-0167), 37° C.; Gain: 100; Laser Beam Focus 1.5 mm; Laser intensity 80%; measurement time/well 0.1 s; positioning delay 0.1 s; data analysis: BMG Labtech MARS software
Measurements with BMG Labtech Nephelostar performed though addition of DMSO stock solutions of compound (2, 5, 10, 20, 30, 40, 50, 60, 80, 100 [μg/mL]) into phosphate buffered saline (pH 7.4, purchased from Invitrogen, catalogue number 10010-056); incubation time: 2 minutes [blank measurement contains DMSO (2.5 μL) and buffered saline (47.5 μL)]; Detection of insoluble particles in liquid samples was performed by measuring forward scattered light.

[2] = target: T1, CRAC channel (endogenous SOC in HEK293 cells) (Homo sapiens, UniProt Q96D31); test: HEK Calcium Influx Assay (FLIPR); assay type: cell-based
T1 construct: endogenous in cells; host or cells: HEK293 (ECACC)
T1 sequence (Q96D31 whole entry): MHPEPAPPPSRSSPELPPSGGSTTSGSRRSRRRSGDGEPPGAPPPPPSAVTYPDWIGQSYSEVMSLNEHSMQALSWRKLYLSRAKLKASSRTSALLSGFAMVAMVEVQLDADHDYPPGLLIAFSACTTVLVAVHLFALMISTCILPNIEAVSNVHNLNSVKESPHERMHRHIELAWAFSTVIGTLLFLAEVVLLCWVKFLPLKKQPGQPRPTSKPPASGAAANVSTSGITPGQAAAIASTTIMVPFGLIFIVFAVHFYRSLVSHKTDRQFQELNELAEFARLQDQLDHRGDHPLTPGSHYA
Summary of the method: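 Endogenous SOC in HEK293 cells, Calcium-4 dye-loaded; stores depleted with 2 μM thapsigargin in Ca2+-free HBS (100 μM EGTA, pH 7.4) 10 min, then 3 mM CaCl2 added. Compound given after 15 min; signal averaged 9.5–10 min post-addition versus DMSO and non-TG controls. IC50 from 8-point 1:3.16 series starting 10 μM.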

[3] = system: Interleukin-2 (IL-2) production/release in Jurkat T cell line; test: Jurkat IL-2 Production Assay; assay type: cell-based; details: Homo sapiens; Jurkat T cells, PHA stimulation 22 hours
Summary of the method: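 Jurkat E6-1 cells (5*10^5/well) preincubated 30 min with compound, then stimulated with 15 μg/ml PHA for 22 h at 37 °C. IC50 from 8-point 1:3.16 dilutions starting at 10 μM.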

[4] = thapsigargin store depletion, read-out: % inhib. [@ 10 μM] FLIPR

Structure (SMILES)	solubility at 2 min [1] [µM]	inhibition at 10 µM ([2]; numeric values of Table 2, read-out: inhib. [@ 10 μM] FLIPR) [%]	inhibition at 10 µM [2, 4] [%]	IC50 [3] [µM]
CCOc1cc(C)c(-c2cc(C(=O)Nc3c(F)cccc3F)nn2C)cn1 [Example 3, N-(2,6-Difluoro-phenyl)-5-(6-ethoxy-4-methyl-pyridin-3-yl)-1-methyl-1H-pyrazole-3-carboxylic acid amide]	149 (≈ 55.6 µg/mL)	75	> 70	< 0.5
COc1cc(OC)c(-c2cc(C(=O)Nc3c(F)cccc3F)nn2C)cn1 [Example 38, N-(2,6-Difluoro-phenyl)-5-(4,6-dimethoxy-pyridin-3-yl)-1-methyl-1H-pyrazole-3-carboxylic acid amide]	> 267		> 70	< 0.5
COc1cc(OC)c(-c2c(C)c(C(=O)Nc3cnc(C)cc3C)nn2C)cn1 [Example 66, 5-(4,6-Dimethoxy-pyridin-3-yl)-N-(4,6-dimethyl-pyridin-3-yl)-1,4-dimethyl-1H-pyrazole-3-carboxylic acid amide]			50 to 70	1 to 5
COc1cc(OC)c(-c2c(C)c(C(=O)Nc3cncc(F)c3C)nn2C)cn1 [Example 67, 5-(4,6-Dimethoxy-pyridin-3-yl)-N-(5-fluoro-4-methyl-pyridin-3-yl)-1,4-dimethyl-1H-pyrazole-3-carboxylic acid amide]			> 70	1 to 5
CCOc1cc(OC)c(-c2cc(C(=O)Nc3c(F)cccc3F)n[nH]2)cn1 [Example 68, N-(2,6-Difluoro-phenyl)-5-(6-ethoxy-4-methoxy-pyridin-3-yl)-1H-pyrazole-3-carboxylic acid amide hydrochloride]			> 70	1 to 5
COc1cc(OC)c(-c2cc(C(=O)Nc3c(F)cccc3F)n[nH]2)cn1 [Example 69, N-(2,6-Difluoro-phenyl)-5-(4,6-dimethoxy-pyridin-3-yl)-1H-pyrazole-3-carboxylic acid amide hydrochloride]			> 70	1 to 5

Now from value to compound:

solubility at 2 min [1] [µM]	inhibition at 10 µM ([2]; numeric values of Table 2, read-out: inhib. [@ 10 μM] FLIPR) [%]	inhibition at 10 µM [2, 4] [%]	IC50 [3] [µM]	Structure (SMILES)
< 14				CCOc1cc(C)c(-c2ccc(NC(=O)c3c(F)cccc3F)cc2)cn1 [Comparative example #3, reference compound]
38.8 (≈ 14.4 µg/mL)				COc1cc(OC)c(-c2ccc(NC(=O)c3c(F)cccc3F)cc2)cn1 [Comparative example #4, reference compound]
< 11				COc1ncc(-c2nn(C)c(=O)o2)cc1-c1ccc(NC(=O)c2c(F)cccc2F)cc1 [Comparative example #5, reference compound]
131 (≈ 57.8 µg/mL)		< 50	1 to 5	COc1ncc(-c2nn(C)c(=O)o2)cc1-c1cc(C(=O)Nc2c(F)cccc2F)nn1C [Example 74, N-(2,6-Difluoro-phenyl)-5-[2-methoxy-5-(4-methyl-5-oxo-4H-[1,3,4]oxadiazol-2-yl)-pyridin-3-yl]-1-methyl-1H-pyrazole-3-carboxylic acid amide]
